# Measured values: patent US6712802B1, “Metabolic therapy directed at electron transport” (priority 1997, dated 2004)
# Read-outs that look alike come from different tables or passages of the source.
# Columns and labels:
# isolated hearts [1] = details: 5-minute succinate infusion
# Text: (§1) Spraque-Dawley rats (250 to 300 g; Sasco Inc., Omaha, Nebr.) were fasted overnight to standardize the levels of glycogen and fatty acids. The animal protocol was reviewed and approved by an appropriate Animal Care and Research Committee. All animals received humane care in compliance with the “Guide for the Care and Use of Laboratory Animals” (NIH Publication No. 85-23, revised 1985). All chemicals were obtained from Sigma (St. Louis, Mo.).
# As previously described by Banerjee et al, the hearts from rats anticoagulated with heparin were excised, immediately arrested in iced oxygenated perfusate, placed on a modified Langendorff apparatus, and retrograded perfused at a constant pressure of 70 mm Hg with nonrecirculating Krebs-Henseleit solution saturated with a gas mixture of 92.5% O2 and 7.5% CO2 Banerjee et al., Circ. Res., 73, 649 (1993). A water-filled latex balloon was inserted into the left ventricle (LV) and the balloon volume was adjusted to achieve a stable LV end-diastolic pressure of 5 mm Hg. This volume was then kept constant for the duration of the study. Pacing wires were fixed to the right atrium, and the hearts were paced at 350 beats per minute except during ischemia and the first three minutes of reperfusion.
# The left ventricular developed pressure (LVDP, in mm Hg) was used as an index of myocardial function and was continuously recorded with a computerized bridge amplifier/digitalizer (Maclab 8, AD Instruments) and a Macintosh AV 7100 (Apple Computer). Hearts unable to initially produce 90 to 120 mm Hg LVDP when paced at 350 beats per minute were discarded. A stopcock above the aortic root was turned to create global ischemia, during which time the heart was placed in a degassed humidified chamber at 37° C.
# The myocardial cytochrome a,a3 redox state, oxymyoglobin (MbO2) and deoxymyoglobin, was continuously monitored using near infrared spectroscopy (NIRS). The use of NIRS to study cardiac metabolism was described previously. In this study, a single NIRS probe (as disclosed in co-pending U.S. patent application Ser. No. 08/672,625) containing five fiber optic bundles (four peripherally arranged to supply infrared light (700 to 1000 nm) and one fiber positioned 4 mm away to receive the transmitted light) was placed on the lift ventricle. For each heart, a signal reference zero value is set at the beginning of the study. The resultant signal changes are continuously processed and recorded using analytic algorithms to separate the effects of each of the signals. The resulting NIRS measurements were taken directly from the monitor and plotted in absorption units versus time. These strips were then printed and saved for subsequent analysis.
# In the second phase of the study, 12 isolated hearts were placed on the Langendorff apparatus as described above. After the equilibration period, 5-minute infusions of succinate at concentrations of 0, 2 ,20 ,200, and 2000 μmol/L were delivered via a Harvard infusion pump directly into a port above the aortic cannula at 0.068 mL/minute. LVDP, heart rate, cytochrome a,a3 redox state, MbO2 and deoxymyoglobin were continuously monitored as described above.
# isolated hearts [2] = tested on: isolated hearts
# Text: as §1
# As previously described by Banerjee et al, the hearts from rats anticoagulated with heparin were excised, immediately arrested in iced oxygenated perfusate, placed on a modified Langendorff apparatus, and retrograded perfused at a constant pressure of 70 mm Hg with nonrecirculating Krebs-Henseleit solution saturated with a gas mixture of 92.5% O2 and 7.5% CO2 Banerjee et al., Circ. Res., 73, 649 (1993). […]
# The left ventricular developed pressure (LVDP, in mm Hg) was used as an index of myocardial function and was continuously recorded with a computerized bridge amplifier/digitalizer (Maclab 8, AD Instruments) and a Macintosh AV 7100 (Apple Computer). […]
# The myocardial cytochrome a,a3 redox state, oxymyoglobin (MbO2) and deoxymyoglobin, was continuously monitored using near infrared spectroscopy (NIRS). […] The resultant signal changes are continuously processed and recorded using analytic algorithms to separate the effects of each of the signals. […]
# [3] = lower concentrations, non-ischemic heart
smiles,measurement,setting,value
O=C(O)CCC(=O)O [succinate],LVDP (left ventricular developed pressure),isolated hearts [1]; 20 μmol/L,not different from control
same,"cytochrome a,a3 redox state",isolated hearts [1]; 20 μmol/L,"reduction of the cytochrome a,a3 redox state"
same,LVDP (left ventricular developed pressure),isolated hearts [1]; 200 μmol/L,not different from control
same,"cytochrome a,a3 redox state",isolated hearts [1]; 200 μmol/L,"reduction of the cytochrome a,a3 redox state"
same,LVDP (left ventricular developed pressure),isolated hearts [1]; 2000 μmol/L,markedly reduced
same,"cytochrome a,a3 redox state",isolated hearts [1]; 2000 μmol/L,markedly reduced
same,LVDP (left ventricular developed pressure),isolated hearts [1]; [3],minimal effects
same,"cytochrome a,a3 redox state",isolated hearts [1]; [3],minimal effects
same,"cytochrome a,a3 redox state on reperfusion","isolated hearts [2]; 200 μmol/L succinate for first 5 minutes of reperfusion after 20 min global ischemia, versus control buffer",attenuation of the oxidation
same,"coupling relationship between oxyhemoglobin and the redox state of cytochrome a,a3",isolated hearts [2]; succinate given early in reperfusion at the described dosages,restores the coupling relationship
